# Test system: PMNs
# Assay: LC-MS of glycolysis and pentose phosphate pathway metabolites
# Assay type: cell-based, human
# Protocol: Neutrophils (1 × 10^7) were untreated or pretreated with 0.5 μM NA-11 for 25 min, and then activated with 50 nM PMA for 30 min. Cell were washed twice in D-PBS and frozen in liquid nitrogen. Metabolites were extracted following protein precipitation using 500 μL cold (−80°C) MeOH:H2O (8:2, V:V) mixture. Aliquots (250 μL) were evaporated and reconstituted with 75 μL of MeOH:H2O (8:2, V:V) containing a series of stable isotope labeled internal standards. LC-MS analysis was performed on a Shimadzu Nexera HPLC series system (Shimadzu, Kyoto, Japan) couple with a Thermo Q Exactive Plus Hybrid Quadrupole-Orbitrap Mass Spectrometer (Thermo Fisher Scientific, Waltham, MA, USA). A Phenomenex Luna NH2 HPLC column (100 Å, 250 mm × 2 mm × 3 μm, Phenomenex, Torrance, CA, USA) was used to separate the analytes of interest. Samples (5 μL) were analyzed under Heated Electrospray Ionization (HESI) in negative mode with a flow rate of 0.4 mL/min and a total run time of 50 min. The mobile phases consisted of (A) 20 mM ammonium hydroxide and 20 mM ammonium acetate in H2O and (B) acetonitrile. The gradient was 0 min, 85% B; 0.5 min, 85% B; 15 min, 0% B; 38 min, 0% B; 40 min, 85% B; 50 min, 85% B. The autosampler temperature was 4°C, and the column temperature was 40°C. The Q Exactive Plus Mass Spectrometer parameters were: sheath gas flow rate, 50 units; aux gas flow rate, 13 units; aux gas temperature, 425°C; capillary temperature, 263°C; spray voltage, −2500 V; scan mode, full MS; scan range, 60-900 m/z; resolution, 70,000; AGC target, 3 × 10^6; maximum IT, 200 ms. Data was processed with TraceFinder (Thermo Fisher Scientific, Waltham, MA, USA). %RSDs of a series of stable isotope-labeled internal standards were calculated to check system suitability and data robustness. Relative MS peak area ratio (Peak Area of Analyte / Peak Area of Internal Standard) was used for compound quantification. […] Pyruvate concentration was quantified using a calibration curve of chemical standard (with stable isotope labeled internal standard, Pyruvate-^13C3) in the surrogate matrix.
# [1] = in the context of PMA activation
structure (smiles),measurement,setting,value
CC(=O)Nc1ccc2c(c1)OCc1cc(-c3ccccc3C#CCCCO)nn1C2 [NA-11],levels of FBP,"compound alone, no PMA",slightly increased levels of FBP
same,"glycolysis metabolites (FBP, DHAP, G-3-P)",[1],increased glycolysis metabolites
same,pentose phosphate pathway metabolites,[1],maintained pentose phosphate pathway metabolites at baseline levels

# From PMC8802628, “Selective activation of PFKL suppresses the phagocytic oxidative burst” (Cell, 2021)
